Assay [1] relates to E. coli BT3/pACYCSP+pRASSL strain. Description: Growth of E. coli BT3/pACYCSP+pRASSL with herbicidal compound. The following applies: 1 ppm, 18 hours culture, Table 15. Type of assay: cell-based, Escherichia coli. The source says:
(§1) According to the description of Gibson, L. C. D. et al., Proc. Natl. Acad. Sci. USA, 92; p 1941 (1995), the DNA fragment containing bchH gene prepared in Example 1 was digested with the restriction enzymes NdeI and BglII. The resultant DNA fragment was inserted between NdeI restriction site and BamHI restriction site of expression vector pET11a (manufactured by Stratagene) to obtain plasmid pETBCH (FIG. 1). This plasmid pETBCH was introduced into E. coli BL21(DE3) strain competent cells (manufactured by Stratagene) according to the manual attached to the competent cells to obtain E. coli BL21(DE3)/pETBCH strain. […] When the absorbance at 600 nm of the liquid culture medium became about 0.6, isopropyl β-D-thiogalactopyranoside (IPTG) was added to the liquid culture medium so that the final concentration was 0.4 mM, and the culture was continued for about additional 20 hours. […]
These E. coli strains were inoculated into YPT medium containing 1 ppm of the PPO inhibitory-type herbicidal compound represented by Structure 8, 100 μg/ml ampicillin, 15 μg/ml chloramphenicol, 10 μg/ml kanamycin, 10 μg/ml hemin and 50 μg/ml aminolevulinic acid, cultured under dark conditions or light conditions according to the same manner as in Example 2. Then, 18 hours after initiation of culture, the absorbance of liquid culture medium was measured at 600 nm. […]

Assay [2] relates to E. coli BT3/pACYCSP+pRASSL8 strain. Nature of the assay: Growth of E. coli BT3/pACYCSP+pRASSL8 with herbicidal compound. The format is cell-based, Escherichia coli. The following applies: 1 ppm, 18 hours culture, Table 16.
From the text: as §1
These E. coli strains were inoculated into YPT medium containing 1 ppm of the PPO inhibitory-type herbicidal compound represented by Structure 8, 100 μg/ml ampicillin, 15 μg/ml chloramphenicol, 10 μg/ml kanamycin, 10 μg/ml hemin and 50 μg/ml aminolevulinic acid, cultured under dark conditions or light conditions according to the same manner as in Example 2. Then, 18 hours after initiation of culture, the absorbance of the liquid culture medium was measured at 600 nm. […]

In US7973219B2, “Method for producing transgenic plants resistant to weed control compounds which disrupt the porphyrin pathways of plants” (Sumitomo Chemical Company, Limited, priority 1998, dated 2011) one finds Relative absorbance data, which are given here for 1 molecule.

Structures are written as SMILES.

Regarding `C#CCOc1cc(N2C(=O)C3=C(CCCC3)C2=O)c(F)cc1Cl` [Structure 8], the Relative absorbance in assay [1] (in the dark) came out at 1.0; in assay [1] (in the light), 0.59; in assay [2] (in the dark), 1.0; in assay [2] (in the light), 0.79.
